The test system of one experiment is M-07e cells. Kind of experiment: M-07e cellular assay (SCF-mediated cell proliferation). The format is cell-based. Conditions: Homo sapiens, 72 hours, CellTiter Glo. The gist of the method:
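CellTiter Glo luminescence after 72 h compound exposure in SCF (EC90)-stimulated M-07e cells expressing endogenous human c-KIT.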
On the technique in general: ATP-based viability assays read luminescence as a measure of living cells.

Experiment [1] has as its target Recombinant human c-KIT kinase (Homo sapiens (Human), UniProt P10721). Kind of experiment: c-KIT kinase chemiluminescence assay (ADP-Glo). The format is biochemical. Conditions: ATP 50 μM. Put shortly: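 ADP formed by c-KIT on polyEY over 2 h at RT (after 30 min enzyme preincubation; Tris pH 7.5, MgCl2, BSA, DTT buffer) was detected by ADP-Glo luminescence. IC50 and Hill slope were fitted to control-normalized activity across compound concentrations.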

Recombinant human c-KIT kinase, sequence (P10721 26-976): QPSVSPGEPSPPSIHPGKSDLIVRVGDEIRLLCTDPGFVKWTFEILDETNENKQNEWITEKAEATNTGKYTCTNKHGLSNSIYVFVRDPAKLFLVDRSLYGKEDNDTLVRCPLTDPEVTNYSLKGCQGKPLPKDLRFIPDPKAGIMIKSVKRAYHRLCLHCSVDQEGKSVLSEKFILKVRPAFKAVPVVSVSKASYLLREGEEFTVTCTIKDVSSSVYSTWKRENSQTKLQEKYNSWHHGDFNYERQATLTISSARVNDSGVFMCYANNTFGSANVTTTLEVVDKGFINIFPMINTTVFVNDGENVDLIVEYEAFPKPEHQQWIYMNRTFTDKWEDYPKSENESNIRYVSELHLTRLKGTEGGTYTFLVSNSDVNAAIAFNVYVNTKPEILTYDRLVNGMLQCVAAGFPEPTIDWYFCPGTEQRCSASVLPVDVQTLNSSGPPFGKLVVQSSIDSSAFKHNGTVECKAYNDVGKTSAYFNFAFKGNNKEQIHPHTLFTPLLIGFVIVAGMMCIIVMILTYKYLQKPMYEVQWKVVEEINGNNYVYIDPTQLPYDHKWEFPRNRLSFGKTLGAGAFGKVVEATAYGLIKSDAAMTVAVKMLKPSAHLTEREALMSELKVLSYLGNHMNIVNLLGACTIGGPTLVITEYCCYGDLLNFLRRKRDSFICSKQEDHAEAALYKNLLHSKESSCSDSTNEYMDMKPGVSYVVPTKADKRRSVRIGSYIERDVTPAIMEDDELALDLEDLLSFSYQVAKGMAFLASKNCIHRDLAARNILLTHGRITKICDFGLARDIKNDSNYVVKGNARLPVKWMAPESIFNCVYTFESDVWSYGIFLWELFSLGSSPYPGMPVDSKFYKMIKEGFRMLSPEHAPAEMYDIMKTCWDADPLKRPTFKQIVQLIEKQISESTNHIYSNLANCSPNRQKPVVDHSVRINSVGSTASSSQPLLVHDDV

On to `Cc1ccc(-c2noc([C@H]3C[C@@H]3F)n2)cc1NC(=O)c1cnn2ccc(N3CC4(CN(C(=O)C(F)(F)F)C4)C3)cc12` [Example 241-15], for which the EC50 in the experiment on M-07e cells is below 100 nM. For the same molecule, the concentration for half-maximal inhibition (IC50) in experiment [1] was below 100 nM.

In the experiment on M-07e cells, `Cc1ccc(-c2noc([C@H]3C[C@@H]3F)n2)cc1NC(=O)c1cnn2ccc(N3CC(CO)(C(=O)O)C3)cc12` [Example 241-16] had a 50% effective concentration (EC50) above 1000 nM. For the same molecule, the half-maximal inhibitory concentration (IC50) in experiment [1] was 100 to 1000 nM.

As to `Cc1ccc(-c2noc([C@H]3C[C@@H]3F)n2)cc1NC(=O)c1cnn2ccc(N3CCOCC3)cc12` [Example 241], the EC50 in the experiment on M-07e cells is below 100 nM. In experiment [1], the IC50 was below 100 nM.

With `Cc1ccc(-c2noc([C@H]3C[C@@H](OC(F)(F)F)C3)n2)cc1NC(=O)c1cnn2ccc(N3CC4(COC4)C3)cc12` [Example 243], in the experiment on M-07e cells, the EC50 was below 100 nM. For the same molecule, in experiment [1], the half-inhibitory concentration (IC50) is below 100 nM.

In the case of `Cc1ccc(-c2noc([C@H]3C[C@@H](OC(F)(F)F)C3)n2)cc1NC(=O)c1cnn2ccc(N3CC4(CN(CC(F)(F)F)C4)C3)cc12` [Example 244], in the experiment on M-07e cells, the concentration giving a half-maximal response (EC50) is below 100 nM. In addition, the IC50 in experiment [1] is below 100 nM.

For the molecule `Cc1ccc(-c2noc([C@H]3C[C@H](OC(F)(F)F)C3)n2)cc1NC(=O)c1cnn2ccc(N3CC4(COC4)C3)cc12` [Example 245], in the experiment with M-07e cells, the EC50 was below 100 nM. Moreover, the half-inhibitory concentration (IC50) in experiment [1] was below 100 nM.

The molecule `Cc1ccc(-c2noc([C@H]3C[C@@H](OC(C)C)C3)n2)cc1NC(=O)c1cnn2ccc(N3CC4(CN(CC(F)(F)F)C4)C3)cc12` [Example 246] returned an EC50 in the experiment with M-07e cells below 100 nM. In addition, in experiment [1], the IC50 lay in the range of 100 to 1000 nM.

Take `Cc1ccc(-c2noc([C@H]3C[C@H](OC(F)F)C3)n2)cc1NC(=O)c1cnn2ccc(N3CC4(COC4)C3)cc12` [Example 247]: the EC50 in the experiment with M-07e cells was below 100 nM. Also, the concentration for half-maximal inhibition (IC50) in experiment [1] was below 100 nM.

The molecule `Cc1ccc(-c2noc([C@H]3C[C@@H](OC(F)F)C3)n2)cc1NC(=O)c1cnn2ccc(N3CC4(CCN(CC(F)F)C4)C3)cc12` [Example 248] displayed a half-maximal effective concentration (EC50) in the experiment with M-07e cells below 100 nM. The IC50 in experiment [1] was in the range of 100 to 1000 nM.

For the molecule `Cc1ccc(-c2noc(C34CC(F)(C3)C4)n2)cc1NC(=O)c1cnn2ccc(N3CC4(COC4)C3)cc12` [Example 249], the half-maximal effective concentration (EC50) in the experiment on M-07e cells was below 100 nM. Besides, the IC50 in experiment [1] was below 100 nM.

As for `Cc1ccc(-c2noc([C@H]3C[C@@H](OC(F)F)C3(C)C)n2)cc1NC(=O)c1cnn2ccc(N3CC4(COC4)C3)cc12` [Example 250], in the experiment on M-07e cells, the EC50 lay within 100 to 1000 nM. In addition, the IC50 in experiment [1] was below 100 nM.

`Cc1ccc(-c2noc([C@H]3C[C@@H](OC(F)(F)F)C3)n2)cc1NC(=O)c1cnn2ccc(N3CC4(CCN(CC(F)F)C4)C3)cc12` [Example 251]: the EC50 with M-07e cells fell in the range of 100 to 1000 nM. Also, the half-inhibitory concentration (IC50) in experiment [1] was in the range of 100 to 1000 nM.

Take `Cc1ccc(-c2noc([C@H]3C[C@@H](OC(F)(F)F)C3)n2)cc1NC(=O)c1cnn2ccc(N3CC4(CCN(CC(F)(F)F)C4)C3)cc12` [Example 252]: the 50% effective concentration (EC50) in the experiment on M-07e cells fell in the range of 100 to 1000 nM. The IC50 in experiment [1] was in the range of 100 to 1000 nM.

With `Cc1ccc(-c2noc([C@H]3C[C@@H](OC(F)F)C3)n2)cc1NC(=O)c1cnn2ccc(N3CC4(CCN(CC(F)(F)F)C4)C3)cc12` [Example 253], in the experiment with M-07e cells, the concentration giving a half-maximal response (EC50) lay in the range of 100 to 1000 nM. Further, the half-inhibitory concentration (IC50) in experiment [1] fell in the range of 100 to 1000 nM.

With `Cc1ccc(-c2noc([C@H]3C[C@@H](OC(F)F)C3(C)C)n2)cc1NC(=O)c1cnn2ccc(N3CC4(CCN(CC(F)(F)F)C4)C3)cc12` [Example 254], the EC50 in the experiment with M-07e cells is 100 to 1000 nM. The concentration for half-maximal inhibition (IC50) in experiment [1] lay within 100 to 1000 nM.

Molecule `Cc1ccc(-c2noc([C@H]3C[C@@H](OC(F)F)C3(C)C)n2)cc1NC(=O)c1cnn2ccc(N3CC4(CCN(CC(F)F)C4)C3)cc12` [Example 255] had a 50% effective concentration (EC50) in the experiment with M-07e cells of 100 to 1000 nM. In addition, the IC50 in experiment [1] is below 100 nM.

For the molecule `Cc1ccc(-c2noc([C@H]3C[C@@H](OC(F)(F)F)C3)n2)cc1NC(=O)c1cnn2ccc(N3CC4CC(C3)O4)cc12` [Example 256], the concentration for a half-maximal effect (EC50) in the experiment with M-07e cells was below 100 nM. In experiment [1], the half-maximal inhibitory concentration (IC50) was below 100 nM.

For the molecule `Cc1ccc(-c2noc([C@H]3C[C@@H](OC(F)F)C3)n2)cc1NC(=O)c1cnn2ccc(N3CC4CC(C3)O4)cc12` [Example 257], the EC50 with M-07e cells lay within 100 to 1000 nM. Also, in experiment [1], the IC50 is below 100 nM.

`Cc1ccc(-c2noc([C@H]3C[C@@H](OC(F)(F)F)C3)n2)cc1NC(=O)c1cnn2ccc(N3CC4(CN(C(=O)OC(C)(C)C)C4)C3)cc12` [Example 258]: the EC50 with M-07e cells lay in the range of 100 to 1000 nM. Besides, the half-inhibitory concentration (IC50) in experiment [1] is 100 to 1000 nM.

Take `Cc1ccc(-c2noc([C@H]3C[C@@H](OC(F)(F)F)C3)n2)cc1NC(=O)c1cnn2ccc(N3CC4(CN(CC(F)F)C4)C3)cc12` [Example 259]: the EC50 in the experiment on M-07e cells is below 100 nM. In addition, in experiment [1], the IC50 was below 100 nM.

`Cc1ccc(-c2noc([C@H]3C[C@@H](OC(F)(F)F)C3)n2)cc1NC(=O)c1cnn2ccc(N3CC4(CNC4)C3)cc12` [Example 260]: the concentration for a half-maximal effect (EC50) in the experiment on M-07e cells fell in the range of 100 to 1000 nM. Also, in experiment [1], the IC50 is below 100 nM.

In the experiment on M-07e cells, `Cc1ccc(-c2noc([C@H]3C[C@@H]3F)n2)nc1NC(=O)c1cnn2ccc(N3CC4(COC4)C3)cc12` [Example 261] displayed an EC50 of 100 to 1000 nM. The IC50 in experiment [1] was 100 to 1000 nM.

In the case of `O=C(Nc1cc(-c2noc([C@H]3C[C@@H]3F)n2)ccc1Cl)c1cnn2ccc(N3CC4(COC4)C3)cc12` [Example 262], the half-maximal effective concentration (EC50) with M-07e cells was below 100 nM. Further, the IC50 in experiment [1] was below 100 nM.

Molecule `Cc1ccc(-c2noc([C@H]3C[C@@H](OC(F)(F)F)C3)n2)cc1NC(=O)c1cnn2cc(-c3cn(C(F)F)nn3)ccc12` [Example 263] yielded a concentration giving a half-maximal response (EC50) in the experiment with M-07e cells below 100 nM. For the same molecule, the concentration for half-maximal inhibition (IC50) in experiment [1] is below 100 nM.

In the experiment on M-07e cells, `O=C(Nc1cc(-c2noc([C@H]3C[C@@H](OC(F)(F)F)C3)n2)ccc1Cl)c1cnn2ccc(N3CC4(COC4)C3)cc12` [Example 264] displayed an EC50 below 100 nM. In experiment [1], the IC50 was below 100 nM.

Turning to `O=C(Nc1cc(-c2noc([C@H]3C[C@@H](OC(F)F)C3)n2)ccc1Cl)c1cnn2ccc(N3CC4(COC4)C3)cc12` [Example 265], the 50% effective concentration (EC50) in the experiment on M-07e cells was below 100 nM. Besides, the IC50 in experiment [1] was below 100 nM.

`Cc1ccc(-c2noc([C@H]3C[C@@H](OC(F)F)C3)n2)nc1NC(=O)c1cnn2ccc(N3CC4(COC4)C3)cc12` [Example 266] showed a half-maximal effective concentration (EC50) with M-07e cells of 100 to 1000 nM. Further, in experiment [1], the IC50 is 100 to 1000 nM.

Molecule `Cc1ccc(-c2noc([C@H]3C[C@@H](OC(F)(F)F)C3)n2)nc1NC(=O)c1cnn2ccc(N3CC4(COC4)C3)cc12` [Example 267] yielded an EC50 in the experiment with M-07e cells of 100 to 1000 nM. For the same molecule, the concentration for half-maximal inhibition (IC50) in experiment [1] fell in the range of 100 to 1000 nM.

On to `Cc1ncc(-c2noc([C@H]3C[C@@H]3F)n2)cc1NC(=O)c1cnn2ccc(N3CC4(COC4)C3)cc12` [Example 268], for which the EC50 in the experiment on M-07e cells was in the range of 100 to 1000 nM. Further, the IC50 in experiment [1] is 100 to 1000 nM.

For `Cc1ncc(-c2noc([C@H]3C[C@@H](OC(F)F)C3)n2)cc1NC(=O)c1cnn2ccc(N3CC4(COC4)C3)cc12` [Example 269], the EC50 with M-07e cells was below 100 nM. Further, the IC50 in experiment [1] fell in the range of 100 to 1000 nM.

In the case of `Cc1ncc(-c2noc([C@H]3C[C@@H](OC(F)(F)F)C3)n2)cc1NC(=O)c1cnn2ccc(N3CC4(COC4)C3)cc12` [Example 270], the half-maximal effective concentration (EC50) in the experiment on M-07e cells is below 100 nM. Besides, the half-maximal inhibitory concentration (IC50) in experiment [1] lay in the range of 100 to 1000 nM.

Consider `Cc1ccc(-c2noc(C34CC(OC(F)F)(C3)C4)n2)cc1NC(=O)c1cnn2ccc(N3CC4(COC4)C3)cc12` [Example 271], for which the 50% effective concentration (EC50) with M-07e cells is below 100 nM. The IC50 in experiment [1] was below 100 nM.

As for `COC12CC(c3nc(-c4ccc(C)c(NC(=O)c5cnn6ccc(N7CC8(COC8)C7)cc56)c4)no3)(C1)C2` [Example 272], the concentration giving a half-maximal response (EC50) in the experiment on M-07e cells is below 100 nM. Also, the IC50 in experiment [1] was below 100 nM.

One may read the EC50 as the concentration needed to bring the measured effect to its halfway point. As a reminder, the IC50 is the concentration at which inhibition is half-maximal.

Source of the values: patent US20250059174A1, “Pharmaceutical Compounds and Compositions as C-Kit Kinase Inhibitors” (Enanta Pharmaceuticals, Inc., priority 2023, published 2025).
